Measurements as given in ChEMBL document CHEMBL5346964, “Discovery of LNP1892: A Precision Calcimimetic for the Treatment of Secondary Hyperparathyroidism” (J Med Chem, 2023).

Legend:
[1] = Volume of distribution at steady state in cynomolgus monkey at 1 mg/kg, iv measured upto 24 hrs by LC/MS-MS analysis; format: ADME, organism-based, Macaca fascicularis; settings: in vivo, read-out: Vdss
[2] = Metabolic stability in mouse liver cytosol measured upto 60 mins by LC-MS/MS method; format: ADME, subcellular; settings: read-out: Stability
[3] = Effect on parathyroid hormone in overnight fasted Sprague-Dawley rat assessed as reduction in plasma PTH level at 10 mg/kg, po measured after 0.5 hrs of post treatment by sandwich ELISA analysis; format: functional; design: scale not given: the % may be the effect or the level left
[4] = Kinetic solubility of compound in FeSSIF upto 500 uM measured after 16 hrs under shaking condition by UV-visible method; format: physicochemical; settings: read-out: Kinetic_solubility
[5] = Apparent permeability across apical to basolateral side in human Caco-2 cells at 5 uM measured after 30 to 120 mins by LC-MS/MS analysis; format: ADME, cell-based; settings: time 30-120 min
[6] = Drug excretion in rat assessed as drug recovery in feces at 1 mg/kg, iv; format: ADME, organism-based; settings: faeces, read-out: Drug recovery
[7] = Protein binding in rat plasma incubated for 16 hrs under shaking condition by rapid equilibrium dialysis based LC-MS/MS method; format: ADME, cell-free; settings: read-out: PPB
[8] = Cmax in human at 10 mg/kg, po administered as single dose; format: ADME, organism-based; design: dose 10 mg/kg, route po; settings: in vivo
[9] = molecular target: T1, 5-hydroxytryptamine receptor 1A (Homo sapiens) (UniProt P08908); test: Inhibition of human recombinant 5-HT1A receptor at 10 uM relative to control
T1 sequence (whole entry): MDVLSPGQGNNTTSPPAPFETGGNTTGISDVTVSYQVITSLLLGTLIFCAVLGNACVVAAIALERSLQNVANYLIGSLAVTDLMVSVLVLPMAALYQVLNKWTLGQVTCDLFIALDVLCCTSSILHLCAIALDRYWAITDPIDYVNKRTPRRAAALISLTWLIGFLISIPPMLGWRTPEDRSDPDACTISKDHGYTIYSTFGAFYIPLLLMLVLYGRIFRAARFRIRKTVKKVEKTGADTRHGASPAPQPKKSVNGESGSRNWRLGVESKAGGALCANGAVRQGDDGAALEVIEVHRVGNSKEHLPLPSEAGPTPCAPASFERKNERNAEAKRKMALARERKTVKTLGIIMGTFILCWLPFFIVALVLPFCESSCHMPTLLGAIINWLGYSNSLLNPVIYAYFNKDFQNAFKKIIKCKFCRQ

[10] = Kinetic solubility of compound in SIF upto 500 uM measured after 16 hrs under shaking condition by UV-visible method; format: physicochemical; settings: read-out: Kinetic_solubility
CYP3A4 = CYP3A4 (Homo sapiens, UniProt P08684); test: Inhibition of CYP3A4 in human liver microsomes at 10 uM preincubated for 5 mins followed by NADPH addition by LC-MS/MS analysis relative to control; format: ADME, Microsome
[11] = Kinetic solubility of compound upto 500 uM at pH 7.4 measured after 16 hrs under shaking condition by UV-visible method; format: physicochemical; settings: buffer, read-out: Kinetic_solubility
[12] = Protein binding in dog plasma incubated for 16 hrs under shaking condition by rapid equilibrium dialysis based LC-MS/MS method; format: ADME, cell-free, Canis lupus familiaris; settings: read-out: PPB
[13] = Cmax in Sprague-Dawley rat at 300 mg/kg; format: ADME, organism-based; design: dose 300 mg/kg; settings: in vivo
CYP2D6 = CYP2D6 (Homo sapiens, UniProt P10635); test: Inhibition of CYP2D6 in human liver microsomes at 10 uM preincubated for 5 mins followed by NADPH addition by LC-MS/MS analysis relative to control; format: ADME, Microsome
[14] = Effect on parathyroid hormone in overnight fasted Sprague-Dawley rat assessed as reduction in plasma PTH level at 3 mg/kg, po measured after 4 hrs of post treatment by sandwich ELISA analysis; format: functional; design: scale not given: the % may be the effect or the level left
[15] = Half life in Sprague-Dawley rat at 1 mg/kg, iv measured upto 24 hrs by LC-MS/MS analysis; format: ADME, organism-based; settings: in vivo
[16] = Stability in rat plasma measured up to 4 hrs by LC-MS/MS method; format: ADME, cell-free; settings: read-out: Stability
[17] = AUC(0 to 24 hrs) in Sprague-Dawley rat at 300 mg/kg; format: ADME, organism-based; design: dose 300 mg/kg; settings: in vivo
[18] = AUC in BALB/c mouse at 10 mg/kg, po measured upto 24 hrs by LC/MS-MS analysis; format: ADME, organism-based; design: time < 24 hrs, dose 10 mg/kg, route po; settings: in vivo
[19] = Cmax in rat at 25 mg/kg per day, po via gavage administered for 13 weeks; format: ADME, organism-based; design: time 13 weeks, dose 25 mg/kg, route po; settings: in vivo
[20] = AUC in cynomolgus monkey at 5 mg/kg, po measured upto 24 hrs by LC/MS-MS analysis; format: ADME, organism-based, Macaca fascicularis; design: dose 5 mg/kg, time < 24 hrs, route po; settings: in vivo
[21] = Clearance in Sprague-Dawley rat at 1 mg/kg, iv measured upto 24 hrs by LC-MS/MS analysis; format: ADME, organism-based; settings: in vivo
[22] = Toxicity in mouse assessed as NOAEL; settings: in vivo
Rattus norvegicus [23] = test: Subchronic effect on parathyroid hormone in overnight fasted adenine diet-induced chronic kidney disease Wistar rat model plasma assessed as reduction in plasma PTH level at 0.1 mg/kg, po qd measured after 27 days of post treatment by sandwich ELISA analysis; format: functional; design: scale not given: the % may be the effect or the level left; settings: time 27 day
Rattus norvegicus [24] = test: Subchronic effect on parathyroid hormone in overnight fasted adenine diet-induced chronic kidney disease Wistar rat model plasma assessed as reduction in plasma PTH level at 0.3 mg/kg, po qd measured after 27 days of post treatment by sandwich ELISA analysis; format: functional; design: scale not given: the % may be the effect or the level left; settings: time 27 day
[25] = Plasma clearance in Sprague-Dawley rat at 1 mg/kg, iv measured upto 24 hrs by LC/MS-MS analysis; format: ADME, organism-based
[26] = Chemical stability of the compound at pH 9 measured after 0.5 to 4 hrs; format: physicochemical; settings: buffer, time 0.5-4 hrs
hERG = hERG (Homo sapiens, UniProt Q12809); test: Inhibition of hERG at 1 uM relative to control; format: toxicity
[27] = Microsomal stability in human liver microsomes assessed as parent compound remaining at 1 uM measured upto 30 mins in presence of NADPH by LC-MS/MS analysis; format: ADME, Microsome; settings: liver microsomes, read-out: Stability
[28] = Tmax in cynomolgus monkey at 5 mg/kg, po measured upto 24 hrs by LC/MS-MS analysis; format: ADME, organism-based, Macaca fascicularis; settings: in vivo
[29] = Kinetic solubility of compound in 20% HP-beta-CD upto 500 uM measured after 16 hrs under shaking condition by UV-visible method; format: physicochemical; settings: read-out: Kinetic_solubility
[30] = Metabolic stability in human liver S9 fraction measured upto 60 mins by LC-MS/MS method; format: ADME, subcellular; settings: read-out: Stability

Sequence of CYP3A4 (P08684 whole entry): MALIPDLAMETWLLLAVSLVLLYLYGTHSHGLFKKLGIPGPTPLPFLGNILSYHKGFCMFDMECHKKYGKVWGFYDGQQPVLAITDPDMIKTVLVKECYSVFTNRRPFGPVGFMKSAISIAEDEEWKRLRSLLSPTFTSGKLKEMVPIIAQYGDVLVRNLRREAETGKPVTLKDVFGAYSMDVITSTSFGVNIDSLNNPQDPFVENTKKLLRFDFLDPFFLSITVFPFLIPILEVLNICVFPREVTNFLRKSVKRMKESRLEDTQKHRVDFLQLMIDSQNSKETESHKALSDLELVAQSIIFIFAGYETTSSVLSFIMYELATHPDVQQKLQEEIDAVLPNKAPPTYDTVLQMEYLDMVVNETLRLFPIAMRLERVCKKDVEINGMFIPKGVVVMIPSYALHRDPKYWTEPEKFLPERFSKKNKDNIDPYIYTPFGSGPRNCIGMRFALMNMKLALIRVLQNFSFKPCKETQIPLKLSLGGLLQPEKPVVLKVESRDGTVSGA
Sequence of CYP2D6 (P10635 whole entry): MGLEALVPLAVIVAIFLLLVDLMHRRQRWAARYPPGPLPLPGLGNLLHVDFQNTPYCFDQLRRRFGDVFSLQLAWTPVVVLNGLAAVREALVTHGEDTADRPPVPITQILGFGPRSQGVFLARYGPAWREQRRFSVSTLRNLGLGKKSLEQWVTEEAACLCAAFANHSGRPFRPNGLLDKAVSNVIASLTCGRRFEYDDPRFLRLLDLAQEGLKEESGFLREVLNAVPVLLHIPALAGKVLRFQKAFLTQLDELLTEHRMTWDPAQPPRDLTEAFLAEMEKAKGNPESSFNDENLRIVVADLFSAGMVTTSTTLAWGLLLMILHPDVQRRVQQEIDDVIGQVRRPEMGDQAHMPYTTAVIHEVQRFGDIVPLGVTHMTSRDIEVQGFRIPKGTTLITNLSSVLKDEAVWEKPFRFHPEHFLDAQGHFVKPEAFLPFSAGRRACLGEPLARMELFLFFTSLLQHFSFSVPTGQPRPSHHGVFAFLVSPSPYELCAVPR
Sequence of hERG (Q12809 whole entry): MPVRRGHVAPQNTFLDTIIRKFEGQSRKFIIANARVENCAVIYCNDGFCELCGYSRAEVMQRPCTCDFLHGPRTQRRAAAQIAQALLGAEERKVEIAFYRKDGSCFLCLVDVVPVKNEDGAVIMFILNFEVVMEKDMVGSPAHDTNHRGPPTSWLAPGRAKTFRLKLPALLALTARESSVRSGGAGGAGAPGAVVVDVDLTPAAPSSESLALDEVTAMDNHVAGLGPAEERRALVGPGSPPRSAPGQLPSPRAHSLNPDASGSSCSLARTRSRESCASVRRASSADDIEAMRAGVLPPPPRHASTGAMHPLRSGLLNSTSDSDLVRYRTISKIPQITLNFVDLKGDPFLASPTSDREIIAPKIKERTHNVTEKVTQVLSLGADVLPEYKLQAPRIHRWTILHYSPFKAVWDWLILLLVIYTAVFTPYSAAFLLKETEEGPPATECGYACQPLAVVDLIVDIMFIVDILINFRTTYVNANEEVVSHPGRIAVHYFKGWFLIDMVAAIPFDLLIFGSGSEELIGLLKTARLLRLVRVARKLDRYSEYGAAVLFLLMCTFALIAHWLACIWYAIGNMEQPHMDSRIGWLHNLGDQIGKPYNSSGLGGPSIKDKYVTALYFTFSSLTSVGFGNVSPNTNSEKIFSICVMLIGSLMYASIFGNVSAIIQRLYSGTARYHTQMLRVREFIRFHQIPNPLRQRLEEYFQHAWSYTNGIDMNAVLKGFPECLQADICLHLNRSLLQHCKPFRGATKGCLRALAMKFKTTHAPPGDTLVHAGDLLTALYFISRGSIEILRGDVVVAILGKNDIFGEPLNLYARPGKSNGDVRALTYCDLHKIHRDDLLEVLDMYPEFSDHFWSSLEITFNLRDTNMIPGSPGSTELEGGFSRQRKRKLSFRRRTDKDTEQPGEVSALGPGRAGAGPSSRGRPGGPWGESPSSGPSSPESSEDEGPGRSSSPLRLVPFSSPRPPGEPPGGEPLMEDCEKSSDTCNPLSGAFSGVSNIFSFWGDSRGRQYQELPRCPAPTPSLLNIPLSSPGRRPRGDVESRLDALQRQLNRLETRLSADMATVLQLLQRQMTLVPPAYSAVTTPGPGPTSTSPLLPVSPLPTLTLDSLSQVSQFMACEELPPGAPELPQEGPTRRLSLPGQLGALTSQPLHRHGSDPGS

SMILES: Cc1ccc([C@@H]2C[C@H](CN[C@H](C)c3cccc4ccccc34)Oc3ccccc32)cc1C(=O)O.Cl
- Vd [1]: 20 L/kg
- remaining at 1 h [2]: > 80%
- Activity [3]: 100%
- solubility kinetic at 16 h, 500 µM [4]: > 300 µM
- Papp A→B at 5 µM [5]: 20 ×10⁻⁶ cm/s
- dose excreted [6]: 10%
- fraction unbound at 16 h [7]: < 0.01
- Cmax [8]: 202 ng/mL
- inhibition [9]: > 50%
- solubility kinetic at 16 h, 500 µM [10]: > 300 µM
- inhibition at 10 µM (CYP3A4): 0%
- solubility kinetic at 16 h, 500 µM [11]: > 200 µM
- fraction unbound at 16 h [12]: < 0.01
- Cmax [13]: 72 µM
- inhibition at 10 µM (CYP2D6): 0%
- Activity [14]: 74%
- half-life [15]: 4 h
- remaining at 4 h [16]: > 80%
- AUC(0-t) [17]: 1020 µM·h
- AUC at 24 h [18]: 171 µM·h
- Cmax [19]: 9660 ng/mL
- AUC at 24 h [20]: 1.3 µM·h
- clearance [21]: 4 mL/min/kg
- NOAEL [22]: 50 mg/kg/day
- Activity (Rattus norvegicus [23]): 62%
- Activity (Rattus norvegicus [24]): 73%
- clearance [25]: 4 mL/min/kg
- Stability [26]: Stable
- inhibition at 1 µM (hERG): 1%
- remaining at 0.5 h, 1 µM [27]: 73%
- Tmax [28]: 1.7 h
- solubility kinetic at 16 h, 500 µM [29]: > 200 µM
- remaining at 1 h [30]: > 80%
